Measured values: US6399610B1, “Transmucosal formulations of levosimendan” (Orion Corporation, priority 1997, dated 2002)

Assay: Bioavailability of levosimendan following buccal and intravenous administration in dogs (plasma concentration)
Format: in vivo, beagle dogs
Details: for concentration at 10 min / concentration at 20 min / concentration at 40 min / concentration at 60 min / concentration at 90 min / concentration at 120 min: beagle, dog, plasma, 0.02 mg/kg; for concentration at 10 min / concentration at 20 min / concentration at 40 min / concentration at 60 min / concentration at 90 min / concentration at 120 min / Levosimendan concentration: dog plasma; for Levosimendan concentration: 0 min
Procedure: Bioavailability of levosimendan was studied in dogs following buccal and intravenous administration of 0.02 mg/kg of the compound. As experimental animals, three beagle dogs were used. At the time of dosing all animals weighed approximately 10 kg. The dogs were given levosimendan as an intravenous injection or buccal spray at one week intervals. Appropriate concentration (2 mg/ml in 96% ethanol) of the compound was prepared in 10 ml amber glass containers sealed with spray nozzles (50 μl dose, Pfeiffer). The 0.02 mg/kg buccal dose was thus obtained by spraying 2 consecutive 50 μl doses to the buccal cavity of the animals (the dosing volume being thus 0.1 ml/10 kg). The iv dose (0.1 ml/10 kg) was taken from the same bottles.
5 ml of blood was collected from the cephalic vein at the following times after administration: 0, 10, 20, 40, min, 1, 1.5 and 2 hours. Plasma was separated and stored frozen in −20 ° C. until analyzed.
Levosimendan in dog plasma was determined by a non-enantioselective method, in which an automated sample preparation technique combined with high performance liquid chromatography was used. The plasma clean-up was performed by on-line dialysis and the, dialysate was retained on a trace enrichment column. The analyte was then-separated on an analytical column and detected with a UV-detector. The limit of quantitation was 5 ng/ml and the quantitation range 5-500 ng/ml.
The apparatus comprised a Gilson ASTED (Automated Sequential Trace Enrichment System) system (Gilson Medical Electronics, Villiers-le-Bel, France). The dialysis cell was fitted with a Cuprophan cellulose membrane with a molecular cut-off of 15 kDa and the trace enrichment column was a Hypersil ODS (5.8×4.6 mm i.d., 10 μm). The chromatographic system consisted of an LKB Model 2150 pump (Bromma, Sweden) and a Lichrosorb RP-18 (250×4 mm i.d., 10 μm) column (Merck, Darmstadt, Germany). The detector was a Spectra 100 UV-VIS (Spectra-Physics, San Jose, Calif., USA). The wavelength was 380 nm. The mobile phase consisted of a 32 mM monosodium dihydrogen phosphate buffer, methanol, and tetrahydrofuran (45:65:1, v/v/v, pH 3.5). The mobile phase flow rate was 1.0 ml/min.

[1] = other: buccal spray, buccal spray 0.02 mg/kg, Dog 1
[2] = other: buccal spray, buccal spray 0.02 mg/kg, Dog 2
[3] = other: buccal spray, buccal spray 0.02 mg/kg, Dog 3

concentration at 10 min (iv, iv 0.02 mg/kg, Dog 1): 128 ng/mL
concentration at 10 min (iv, iv 0.02 mg/kg, Dog 2): 103 ng/mL
concentration at 10 min (iv, iv 0.02 mg/kg, Dog 3): 100 ng/mL
concentration at 20 min (iv, iv 0.02 mg/kg, Dog 1): 105 ng/mL
concentration at 20 min (iv, iv 0.02 mg/kg, Dog 2): 71 ng/mL
concentration at 20 min (iv, iv 0.02 mg/kg, Dog 3): 82 ng/mL
concentration at 40 min (iv, iv 0.02 mg/kg, Dog 1): 74 ng/mL
concentration at 40 min (iv, iv 0.02 mg/kg, Dog 2): 46 ng/mL
concentration at 40 min (iv, iv 0.02 mg/kg, Dog 3): 58 ng/mL
concentration at 60 min (iv, iv 0.02 mg/kg, Dog 1): 58 ng/mL
concentration at 60 min (iv, iv 0.02 mg/kg, Dog 2): 36 ng/mL
concentration at 60 min (iv, iv 0.02 mg/kg, Dog 3): 46 ng/mL
concentration at 90 min (iv, iv 0.02 mg/kg, Dog 1): 39 ng/mL
concentration at 90 min (iv, iv 0.02 mg/kg, Dog 2): 24 ng/mL
concentration at 90 min (iv, iv 0.02 mg/kg, Dog 3): 33 ng/mL
concentration at 120 min (iv, iv 0.02 mg/kg, Dog 1): 28 ng/mL
concentration at 120 min (iv, iv 0.02 mg/kg, Dog 2): 15 ng/mL
concentration at 120 min (iv, iv 0.02 mg/kg, Dog 3): 25 ng/mL
concentration at 10 min [1]: 10 ng/mL
concentration at 10 min [2]: 17 ng/mL
concentration at 10 min [3]: 7.6 ng/mL
concentration at 20 min [1]: 24 ng/mL
concentration at 20 min [2]: 24 ng/mL
concentration at 20 min [3]: 9.4 ng/mL
concentration at 40 min [1]: 32 ng/mL
concentration at 40 min [2]: 25 ng/mL
concentration at 40 min [3]: 25 ng/mL
concentration at 60 min [1]: 26 ng/mL
concentration at 60 min [2]: 22 ng/mL
concentration at 60 min [3]: 24 ng/mL
concentration at 90 min [1]: 18 ng/mL
concentration at 90 min [2]: 17 ng/mL
concentration at 90 min [3]: 22 ng/mL
concentration at 120 min [1]: 13 ng/mL
concentration at 120 min [2]: 12 ng/mL
concentration at 120 min [3]: 16 ng/mL
Levosimendan concentration (buccal spray 0.02 mg/kg, Dog 1): < (< means below quantitation range)
Levosimendan concentration (buccal spray 0.02 mg/kg, Dog 2): < (< means below quantitation range)
Levosimendan concentration (buccal spray 0.02 mg/kg, Dog 3): < (< means below quantitation range)
Levosimendan concentration (iv 0.02 mg/kg, Dog 1): < (< means below quantitation range)
Levosimendan concentration (iv 0.02 mg/kg, Dog 2): < (< means below quantitation range)
Levosimendan concentration (iv 0.02 mg/kg, Dog 3): < (< means below quantitation range)
Absorption into blood from the buccal spray (dogs, buccal spray 0.02 mg/kg): rapidly absorbed into blood
Serum levels of levosimendan (dogs, buccal spray 0.02 mg/kg): steady serum levels
Structure (SMILES): CC1CC(=O)NN=C1c1ccc(NN=C(C#N)C#N)cc1 (single isomer, unassigned; (-)) [Levosimendan, (-)-enantiomer of [[4-(1,4,5,6-tetrahydro-4-methyl-6-oxo-3-pyridazinyl)phenyl]hydrazono]propanedinitrile]
